Assay results: patent US8309685B2 (Celgene Avilomics Research, Inc., priority 2007, dated 2012)
Like-named read-outs stand apart in the source and are kept apart here.

Assays:
[1] = biological target: T1, D168A mutant of the HCV NS3/4A 1b protease enzyme (Hepatitis C virus genotype 1b, UniProt P26663, D1194A); assay: HCV Protease FRET Assay (IC50), D168A mutant; assay type: biochemical; conditions: read-out: Inhibition, HCV D168A; D168A enzyme, FRET assay
T1 construct: 10× stocks of NS3/4A protease enzyme from Bioenza (Mountain View, Calif.); purchased Bioenza (Mountain View, Calif.)

[2] = biological target: T2, wild type HCV NS3/4A 1b protease enzyme (Hepatitis C virus genotype 1b, UniProt P26663); assay: biochemical; assay type: biochemical; conditions: read-out: Inhibition, WT; WT enzyme, FRET assay
T2 construct: 10× stocks of NS3/4A protease enzyme from Bioenza (Mountain View, Calif.); purchased Bioenza (Mountain View, Calif.)

[3] = test system: HCV RNA replicon in cell line ET (luc-ubi-neo/ET), human Huh7 hepatoma; assay: Method A: HCV RNA replicon antiviral assay (luciferase, ET cell line); assay type: cell-based, Hepatitis C virus; conditions: Hepatitis C virus, Huh-7
In short: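 ET replicon cells (Huh7 carrying luciferase-reporter HCV replicon) plated at 5×10^3 cells/well and exposed 72 hr to six 3-fold drug concentrations in DMEM/5% FBS. Replicon luciferase gave EC50/EC90; CytoTox-1 cell counts gave IC50 (viability); […]. Interferon alpha-2b served as positive control.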

[4] = test system: cell line ET (luc-ubi-neo/ET), human Huh7 hepatoma cell line; assay: Method A: cytotoxicity in ET replicon cells (CytoTox-1); assay type: cell-based; conditions: concentration decreasing cell viability by 50%, 72 hr
In short: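 ET cells (Huh7 carrying luciferase HCV replicon), 5×10^3 cells/well, given six 3-fold compound concentrations in DMEM with 5% FBS. After 72 hr, while subconfluent, cell number was measured with CytoTox-1 reagent. Interferon alpha-2b served as positive control.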

[5] = biological target: T3, A156T mutant of the HCV NS3/4A 1b protease enzyme (Hepatitis C virus genotype 1b, UniProt P26663, A1182T); assay: HCV Protease FRET Assay (IC50), A156T mutant; assay type: biochemical; conditions: read-out: Inhibition, HCV A156T; A156T enzyme, FRET assay
T3 construct: 10× stocks of NS3/4A protease enzyme from Bioenza (Mountain View, Calif.); purchased Bioenza (Mountain View, Calif.)

HCV NS3/4A protease = HCV NS3/4A protease (UniProt Q9WMX2); assay: Method B: HCV Protease Assay using FRET Methodology; set-up: species or system Hepatitis C virus; conditions: read-out: Inhibition, Biochemical; Enzyme/Assay: Biochemical
Text: Method B: HCV Protease Assay using FRET Methodology
A quantitative, fluorescence resonance energy transfer (FRET)-based methodology was employed to identify HCV NS3/4A protease inhibitors. The assay employed a synthetic FRET peptide, derived from the HCV NS5A/5B cleavage site, with the HCV protease to evaluate the activity of compounds against the protease by monitoring the cleavage activity of the complex. A synthetic peptide which encompasses the NS5A-5B junction (NH2-EDVVCCSMSYK-COOH) was labeled with Dabcyl and Edans at N- and C-termini, respectively (Invitrogen, Carlsbad, Calif.). Fluorescence measurement was used to estimate the IC50 value of the test compound. […] Upon cleavage of the FRET peptide by HCV NS3/4A proteinase complex (100 ng/mL), the fluorescence is recovered and can be continuously monitored at excitation/emission=340/490 nm.

[6] = biological target: T1, D168A mutant of the HCV NS3/4A 1b protease enzyme; assay: HCV Protease FRET Assay (IC50_APP), D168A mutant; assay type: biochemical; conditions: apparent IC50, D168A mutant; read-out: IC50_APP, HCV D168A
[7] = biological target: T4, HCV NS3/4A wild type (genotype 1b) (Hepatitis C virus genotype 1b, UniProt P26663); assay: Mass spectrometric analysis (MALDI-TOF) of covalent modification, HCV wild type; assay type: binding; conditions: 10-fold excess of compound to protein, 1 hr
T4 construct: mass spectroscopic analysis of HCV NS3/4A wild-type protease domain; purchased Bioenza Calif
Protocol: Mass spectrometric analysis of HCV wild type or HCV variant C159S in the presence of test compound was performed. 100 pmols of HCV wild type (Bioenza Calif.) was incubated with compound for 1 hr and 3 hrs at 10-fold access of […] to protein. 1 ul aliquots of the samples (total volume of 4.24 ul) were diluted with 10 ul of 0.1% TFA prior to micro C4 ZipTipping directly onto the MALDI target using Sinapinic acid as the desorption matrix (10 mg/ml in 01% TFA:Acetonitrile 50:50). Analyses were performed on a Shimadzu Biotech Axima TOF^2 (Shimadzu Instruments) matrix-assisted-laser desorption/ionization Time-of-Flight (MALDI-TOF) mass spectrometer. The same procedure was carried out on 100 pmols of HCV C159S mutant of HCV protease for 3 hrs at 10-fold excess of (I-3) to protein.
As depicted in FIGS. 2, 3, 4, and 5, mass spectrometric analysis of HCV wild type or HCV mutants in the presence of test compound (I-3) was performed. […] 1 ul aliquots of the samples were diluted with 10 ul of 0.1% TFA prior to micro C4 ZipTipping directly onto the MALDI target using Sinapinic acid as the desorption matrix (10 mg/ml in 0.1% TFA:Acetonitrile 50:50).
Mass spectrometric analysis of HCV wild type (genotype 1b) in the presence of test compounds I-73 and I-75 was performed using the following protocol: HCV NS3/4A wild type (wt) was incubated for 1 hr at a 10× fold access of test compound to protein. 2 ul aliquots of the samples were diluted with 10 ul of 0.1% TFA prior to micro C4 ZipTipping directly onto the MALDI target using Sinapinic acid as the desorption matrix (10 mg/ml in 0.1% TFA:Acetonitrile 50:50). For intact protein mass measurement the instrument was set in Linear mode using a pulsed extraction setting of 24,500 and apomyoglobin as the standard to calibrate the instrument.
Mass spectrometric analysis of HCV NS3/4A genotypes 1a, 1b, 2a, and 3a in the presence of test compound I-96 was performed using the following protocol: HCV NS3/4A was incubated for 3 hr at a 10× fold access of test compound to protein. […]

[8] = biological target: T3, A156T mutant of the HCV NS3/4A 1b protease enzyme; assay: HCV Protease FRET Assay (IC50_APP), A156T mutant; assay type: biochemical; conditions: apparent IC50, A156T mutant; read-out: IC50_APP, HCV A156T
[9] = biological target: T2, wild type HCV NS3/4A 1b protease enzyme; assay: HCV Protease FRET Assay (IC50_APP), wild type; assay type: biochemical
[10] = biological target: T5, C159S mutant of the HCV NS3/4A 1b protease enzyme (Hepatitis C virus genotype 1b, UniProt P26663, C1185S); assay: HCV Protease FRET Assay (IC50_APP), C159S mutant; assay type: biochemical; conditions: apparent IC50, C159S mutant
T5 construct: 10× stocks of NS3/4A protease enzyme from Bioenza (Mountain View, Calif.); purchased Bioenza (Mountain View, Calif.)
Protocol: (§1) HCV Protease FRET Assay for WT and Mutated NS3/4A 1b Enzymes (IC50—APP).
(§2) The following protocol was used to generate “apparent” IC50 (IC50—APP) values as depicted in Table 6, below. […] 5 μL of each enzyme were added to Corning (#3575) 384-well, black, microtiter plates (Corning, N.Y.) after spotting a 0.5 μL volume of 50% DMSO and serially diluted compounds prepared in 50% DMSO. Protease reactions were immediately started after enzyme addition with the addition of 45 μL of the FRET substrate and monitored for 60-90 minutes at λex485/λem520 in a Synergy^4 plate reader from BioTek (Winooski, Vt.). At the conclusion of each assay, progress curves from each well were examined for linear reaction kinetics and fit statistics (R^2, 95% confidence intervals, absolute sum of squares).
(§3) The compound numbers correspond to the compound numbers in Table 3. […] ;

[11] = test system: HCV RNA replicon in cell line ET (luc-ubi-neo/ET), human Huh7 hepatoma; assay: Luciferase Assay (Example 35), replicon-derived luciferase activity; assay type: cell-based; conditions: Hepatitis C virus, Huh-7; assay described in Example 35
Protocol: The compounds were assayed to evaluate the antiviral activity and cytotoxicity of compounds using replicon-derived luciferase activity. This assay used the cell line ET (luc-ubi-neo/ET), which is a human Huh7 hepatoma cell line that contains an HCV RNA replicon with a stable luciferase (Luc) reporter and cell culture-adaptive mutations. The ET cell line was grown in a 5% CO2 incubator at 37° C. in Dulbecco's modified essential media (DMEM) supplemented with 2 mM L-glutamine, nonessential amino acids, 100 U of penicillin/ml, 100 μg of streptomycin/mL, and 10% fetal bovine serum. G418 (Geneticin; Invitrogen) was added at a final concentration of 400 ug//mL.
All cell culture reagents were obtained from Invitrogen (Carlsbad). Cells were trypsinized (1% trypsin:EDTA) and plated out at 5×10^3 cells/well in white 96-well assay plates (Costar) dedicated to cell number (cytotoxicity) or antiviral activity assessments. Test compounds were added at six 3-fold concentrations each and the assay was run in DMEM, 5% FBS, 1% pen-strep, 1% glutamine, 1% non essential amino acid. Human interferon alpha-2b (PBL Biolabs, New Brunswick, N.J.) was included in each run as a positive control compound. Cells were processed 72 hr post test compound addition when the cells were still subconfluent. Antiviral activity was measured by analyzing replicon-derived luciferase activity using the Steady-Glo Luciferase Assay System (Promega, Madison, Wis.) according to manufacturer's instruction. The number of cells in each well was determined by Cell Titer Blue Assay (Promega). Compound profile was derived by calculating applicable EC50 (effective concentration inhibiting virus replication by 50%), EC90 (effective concentration inhibiting virus replication by 90%), IC50 (concentration decreasing cell viability by 50%) and SI50 (selective index: […]) values.

[12] = biological target: T6, R155K mutant of the HCV NS3/4A 1b protease enzyme (Hepatitis C virus genotype 1b, UniProt P26663, R1181K); assay: HCV Protease FRET Assay (IC50_APP), R155K mutant; assay type: biochemical; conditions: apparent IC50, R155K mutant; read-out: IC50_APP, HCV R155K
T6 construct: 10× stocks of NS3/4A protease enzyme from Bioenza (Mountain View, Calif.); purchased Bioenza (Mountain View, Calif.)
Protocol: as §1, §2, §3

[13] = read-out: IC50_APP, WT, apparent IC50, wild type NS3/4A 1b

With `C=C[C@@H]1C[C@]1(NC(=O)[C@@H]1C[C@@H](Oc2cc(-c3ccccc3)nc3cc(OC)ccc23)CN1C(=O)[C@H](CNC(=O)/C=C/C)NC(=O)OC(C)(C)C)C(=O)NS(=O)(=O)c1ccccc1` [Compound I-2, N-[(1,1-dimethylethoxy)carbonyl]-3-[(2-butenoyl)amino]-L-alanyl-(4R)-4-[(7-methoxy-2-phenyl-4-quinolinyl)oxy]-L-prolyl-1-amino-2-ethenyl-N-(phenylsulfonyl)-(1R,2S)-cyclopropanecarboxamide] the IC50 [1] was 1 to 10 µM, the IC50 [2] was less than 0.01 µM and the IC50 ([3]; Replicon, assay of Example 22, 72 hr, read-out: Inhibition, Replicon) was 0.1 to 1 µM. For the same compound, the “Inhibition, Cytotoxicity” value [4] was “E (IC50≧10,000 nM)”, the IC50 [5] was 0.01 to 0.1 µM and the IC50 (HCV NS3/4A protease) was 0.1 to 1 µM.
Compound `C=C[C@@H]1C[C@]1(NC(=O)[C@@H]1C[C@@H](Oc2cc(-c3ccccc3)nc3cc(OC)ccc23)CN1C(=O)[C@@H](NC(=O)OC(C)(C)C)[C@@H](C)OC(=O)/C=C/C)C(=O)NS(=O)(=O)C1CC1` [Compound I-50, (E)-((2R,3S)-3-(tert-butoxycarbonylamino)-4-((2S,4R)-2-((1R,2S)-1-(cyclopropylsulfonylcarbamoyl)-2-vinylcyclopropylcarbamoyl)-4-(7-methoxy-2-phenylquinolin-4-yloxy)pyrrolidin-1-yl)-4-oxobutan-2-yl)but-2-enoate] has an IC50 [6] of 0.1 to 1 µM, an IC90 ([3]; IC90, assay described in Example 22) of less than 0.01 µM and an IC50 ([3]; assay described in Example 22, read-out: Replicon (IC50)) of less than 0.01 µM. For the same compound, the “Covalent modification of HCV wild type by mass spectrometry” value [7] was “measurable covalent modification”, the IC50 [8] was 0.1 to 1 µM and the IC50 [9] was less than 0.01 µM.
Work on `C=CC(=O)N[C@H](CC(C)C)C(=O)N1C[C@H](Oc2nccc3cc(OC)ccc23)C[C@H]1C(=O)N[C@]1(C(=O)NS(=O)(=O)C2CC2)C[C@H]1C=C` [Compound I-105] yielded an IC50 [6] of 0.1 to 1 µM, an IC50 [8] of less than 0.01 µM and an IC50 [9, 13] of less than 0.01 µM. It also gave an IC50 [10] of 0.1 to 1 µM, an EC50 [11] of 0.01 to 0.1 µM and an IC50 [12] of 0.01 to 0.1 µM.
Compound `C=CC(=O)N[C@H](Cc1ccccc1)C(=O)N1C[C@H](Oc2nccc3cc(OC)ccc23)C[C@H]1C(=O)N[C@]1(C(=O)NS(=O)(=O)C2CC2)C[C@H]1C=C` [Compound I-106] has an IC50 [6] of 0.1 to 1 µM, an IC50 [8] of less than 0.01 µM and an IC50 [9, 13] of less than 0.01 µM. It also gave an IC50 [10] of 0.1 to 1 µM, an EC50 [11] of 0.01 to 0.1 µM and an IC50 [12] of 0.01 to 0.1 µM.
